What follows are molecules tested on Human colon cancer cell line HRT18 (assay: MTT cytotoxicity / cell proliferation assay in HRT18 colon tumour cell line). Conditions: HRT-18, HRT18 cells, 72 h incubation, 0.128-2000 nM, read-out: EC50 (nM) Colorectal cell HRT18.
Format: cell-based
Text: The compounds can be assayed by many in vitro or in vivo methods, but in the first instance a cell proliferation assay is rapid and informative. Many tumour cell lines can be used for the assay, we herein report typical data for target compounds in HRT18 colon tumour cell line, using standard MTT assay methods, typical in many laboratories.
Human colon cancer cell line HRT18 were purchased from the European Collection of Animal Cell Cultures (ECACC, Salisbury, England). Cytoxicity assay was based on MTT assay as we previously reported. The method is based on the ability of viable mitochondria to convert MTT, a soluble tetrazolium salt (3-[4,5-dimethylthiazd-2-yl]-2,5-diphenyltetrazolium bromide) into an insoluble formazan precipitate that is dissolved and quantified by spectrophotometry. A 96-well culture cell culture plate was used. Cells were counted with a haemocytomete counting chamber and a specific number (4000 per well) of cells were seeded to each well with culture medium (DMEM). Compounds, dissolved in DMSO, were series diluted (1:5) in culture medium, to cover a final concentration range between 0.128 and 2000 nM. The culture plate was incubated for 72 h at 37° C. The cells were washed twice with BSS. A solution of MTT in 0.5 mg/mL in culture medium was added into each well. The culture plate was then incubated at 37° C. for 4 h. MTT was then removed by aspiration. The crystals produced by MTT reagent within the cells were then extracted by the addition of 100 µL of Triton X100 (10% in water). The cells were incubated at 4° C. for 24 h. The absorbance of the colorimetric products was then measured at a wavelength of 540 nm using a spectrophotometer (Titertecek).
In the case of `C[C@H](NP(=O)(N[C@@H](C)C(=O)OCc1ccccc1)OC[C@H]1O[C@@H](n2ccc(N)nc2=O)C(F)(F)C1O)C(=O)OCc1ccccc1` (stereo partly drawn) [CPF457, 2′-Deoxy-2′,2′-difluoro-D-cytidine-5′-O-bis(benzoxy-L-alaninyl)] phosphate], the EC50 was 14 nM.
In the case of `C[C@H](NP(=O)(N[C@@H](C)C(=O)OC1CCCCC1)OC[C@H]1O[C@@H](n2ccc(N)nc2=O)C(F)(F)C1O)C(=O)OC1CCCCC1` (stereo partly drawn) [CPF458], the EC50 was 31 nM.
Work on `CCOC(=O)[C@H](C)NP(=O)(N[C@@H](C)C(=O)OCC)OC[C@H]1O[C@@H](n2ccc(N)nc2=O)C(F)(F)C1O` (stereo partly drawn) [CPF459, 2′-Deoxy-2′,2′-difluoro-D-cytidine-5′-O-bis(ethoxy-L-alaninyl)phosphate] yielded an EC50 of 42 nM.
`C[C@H](NP(=O)(N[C@@H](C)C(=O)OCC(C)(C)C)OC[C@H]1O[C@@H](n2ccc(N)nc2=O)C(F)(F)C1O)C(=O)OCC(C)(C)C` (stereo partly drawn) [CPF460] was tested, and the EC50 was 1.6 nM.
`CC(C)OC(=O)[C@H](C)NP(=O)(N[C@@H](C)C(=O)OC(C)C)OC[C@H]1O[C@@H](n2ccc(N)nc2=O)C(F)(F)C1O` (stereo partly drawn) [CPF461] gave an EC50 of 3.2 nM.
Molecule `Nc1ccn([C@@H]2O[C@H](CO)[C@@H](O)C2(F)F)c(=O)n1` [Gemcitabine, gemcitabine] has an EC50 of 64 nM.

From patent publication US9321798B2, “Phosphoramidite derivatives of gemcitabine for use in the treatment of cancer” (NuCana BioMed Limited, priority 2010, dated 2016)
